Values joined by “and” are separate entries in the source; they are usually repeats but may differ in a detail not shown here. Equal entries are not always repeated.
Assays:
[1] = test system: HCT-116 cells; test: Cellular repair of cyclobutane pyrimidine dimers (cellular NER) after UVC; assay type: cell-based, human; conditions: 2 μM
Experimental: We followed the protocol of Mirzayans et al. ([79]) with minor modifications as previously described ([70]). Inhibitor compounds were dissolved in DMSO and applied to a final DMSO concentration of 0.2% in media and 0.2% DMSO was used as the vehicle control. Mouse anti-thymine dimer monoclonal antibody (cat. no. MC-062, Kamiya Biomedical Company, Seattle, WA) was used for the immunofluorescence following UVC irradiation of the cells and fluorescent microscopic evaluation and measurement of fluorescence intensity were performed using MetaXpress, version 6.2.1.704, software (Molecular Devices, Sunnyvale, California). Data were plotted using GraphPad Prism version 5.04 software.
Immunofluorescent detection of cyclobutane pyrimidine dimers (CPD) generated in the DNA of HCT-116 cells after exposure to UVC radiation was used to measure NER. Our observations that approximately 80% of CPD were removed 24 hours post irradiation in the absence of any inhibitors mirrors previous observations ([70], [79]).

[2] = biological target: T1, ERCC1-XPF heterodimer in A549 cells (Homo sapiens, UniProt Q92889); test: Proximity ligation assay of ERCC1-XPF heterodimerization; assay type: cell-based; conditions: 2 µM, 24 h
T1 construct: endogenous in cells; host or cells: A549
T1 sequence (Q92889 1-916): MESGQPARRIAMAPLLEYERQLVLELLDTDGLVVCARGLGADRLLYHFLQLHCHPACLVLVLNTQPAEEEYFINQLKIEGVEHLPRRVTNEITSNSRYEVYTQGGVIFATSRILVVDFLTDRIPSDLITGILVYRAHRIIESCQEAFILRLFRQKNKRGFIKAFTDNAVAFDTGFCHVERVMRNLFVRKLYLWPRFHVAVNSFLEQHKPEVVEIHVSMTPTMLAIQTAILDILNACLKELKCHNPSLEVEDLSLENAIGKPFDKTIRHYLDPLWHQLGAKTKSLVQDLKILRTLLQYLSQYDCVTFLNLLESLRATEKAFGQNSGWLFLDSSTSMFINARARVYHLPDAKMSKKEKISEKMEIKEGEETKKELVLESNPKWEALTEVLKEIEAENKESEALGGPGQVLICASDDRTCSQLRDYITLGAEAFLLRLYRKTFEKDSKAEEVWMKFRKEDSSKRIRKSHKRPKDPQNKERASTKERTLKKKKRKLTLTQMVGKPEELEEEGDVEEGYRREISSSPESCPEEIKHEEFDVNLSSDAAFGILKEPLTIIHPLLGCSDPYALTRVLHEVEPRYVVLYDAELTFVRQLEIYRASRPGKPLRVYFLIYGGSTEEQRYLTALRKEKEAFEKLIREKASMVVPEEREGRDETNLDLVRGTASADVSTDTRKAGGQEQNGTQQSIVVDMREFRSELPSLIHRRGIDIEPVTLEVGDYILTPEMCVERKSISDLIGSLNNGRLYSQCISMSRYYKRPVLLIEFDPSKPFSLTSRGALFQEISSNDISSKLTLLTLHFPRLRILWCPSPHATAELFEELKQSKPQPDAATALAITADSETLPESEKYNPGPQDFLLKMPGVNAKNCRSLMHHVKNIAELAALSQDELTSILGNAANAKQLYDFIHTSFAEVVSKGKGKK
Experimental: A previously published protocol ([73]) was followed with minor modifications. Briefly, 3 x 10^4 A549 cells were seeded in each well of an 8-well Chamber Slide system (Ibidi. Fitchburg, WI) and allowed to adhere overnight. The cells were then treated with the inhibitor (2 μM prepared from a 1 mM stock in DMSO) or vehicle control (0.2% DMSO) and incubated for 24 h. Samples were fixed and processed for protein proximity ligation analysis (PLA) by the Duolink PLA assay kit (Sigma-Aldrich, Oakville, ON) using an ERCC1 antibody (A73368-100, 1/100; EpiGentek, Farmingdale, NY) and an XPF antibody (LS-C173159, 1/100; LifeSpan BioSciences, Seattle, WA). […] Images of the interaction of ERCC1 and XPF represented as red dots were analyzed using IMARIS 9.7 software (Oxford Instruments). Results are expressed as mean values from at least three experiments conducted independently in duplicate.
To confirm that compound 6 was able to disrupt the interaction between subunits in the ERCC1-XPF heterodimer in cells, we performed PLA using A549 lung cancer cells exposed to 2 µM compound 6 or DMSO vehicle for 24 h. […] In the presence of vehicle (0.2% DMSO) alone we observed an average of 75.7 ± 15.4 foci per cell whereas in the presence of compound 6 only an average of 3.1 ± 2.6 foci per cell were detected. […]

[3] = test system: HCT-116 cells; test: Clonogenic survival assay, ionizing radiation; assay type: cell-based, human; conditions: 0.5 and 1 μM, 0 to 8 Gy γ-radiation
Experimental: The effectiveness of compound 6 for sensitization of cells to ionizing radiation was also assessed using the clonogenic survival assay. Briefly, 200-3000 of HCT-116 cells (depending on the radiation dose) were seeded and after 24 hours the cells were pretreated with 0.5 or 1 µM of compound 6 in DMSO for 4 hours followed by exposure to increasing doses of γ-radiation (^60Co Gammacell; Atomic Energy of Canada Limited, Ottawa) from 0 to 8 Gy (at a dose rate of 0.8 Gy/min) and kept for an additional 24 hours in inhibitor-containing medium. The medium was then replaced with fresh medium without the compound, and the plates were incubated at 37°C for 9 more days before staining and determining the number of colonies. Data were plotted using GraphPad Prism version 5.04 software.

[4] = Metabolic stability in human liver microsomes; assay type: in vitro ADME
Experimental: (§1) The ADME (absorption, distribution, metabolism, and excretion) profile of our lead compound 6 was determined by standard protocols carried out by WuXi AppTec (Shanghai) Co (https://www.wuxiapptec.com/). The following tests were conducted: distribution coefficient (log D at pH 7.4), aqueous solubility (Kinetic), metabolic stability in human liver microsomes and cryopreserved human hepatocytes, bidirectional permeability in Caco-2 cells, serum protein binding, and cytochrome P450 (CYP) inhibition (CYP1A2, CYP2C9, CYP2C19, CYP2D6, and CYP3A4-M).

[5] = Metabolic stability in cryopreserved human hepatocytes; assay type: in vitro ADME
Experimental: as §1

[6] = biological target: CYP2C19 (Homo sapiens, UniProt P33261); test: Cytochrome P450 inhibition, CYP2C19; assay type: in vitro ADME
Experimental: as §1

CYP2C19, sequence (P33261 whole entry): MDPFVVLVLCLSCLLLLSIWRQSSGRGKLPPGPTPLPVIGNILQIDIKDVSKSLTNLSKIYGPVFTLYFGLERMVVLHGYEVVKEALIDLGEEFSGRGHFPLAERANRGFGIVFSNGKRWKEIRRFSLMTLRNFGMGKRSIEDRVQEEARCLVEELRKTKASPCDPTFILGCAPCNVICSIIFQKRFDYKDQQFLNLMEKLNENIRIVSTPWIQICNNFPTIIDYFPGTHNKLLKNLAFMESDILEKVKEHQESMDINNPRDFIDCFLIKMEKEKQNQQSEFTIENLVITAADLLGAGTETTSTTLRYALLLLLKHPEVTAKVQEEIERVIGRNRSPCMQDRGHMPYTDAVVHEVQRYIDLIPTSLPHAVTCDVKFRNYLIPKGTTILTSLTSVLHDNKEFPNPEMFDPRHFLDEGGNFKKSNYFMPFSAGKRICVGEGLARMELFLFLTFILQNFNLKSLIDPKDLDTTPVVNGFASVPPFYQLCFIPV

COc1ccc2nc3cc(Cl)ccc3c(Nc3ccc(O)c(CN4CCN(CCN(C(C)C)C(C)C)CC4)c3)c2c1 [Compound 6]
effect on CPD removal / cellular NER (in words) [1]: significant inhibition of NER
ERCC1-XPF PLA foci per cell [2]: 3.1 ± 2.6 foci per cell and 3 foci per cell
sensitization to ionizing radiation (in words) [3]: sensitized HCT-116 cells in a dose-dependent manner
metabolic stability grade, liver microsome assay (in words) [4]: low to moderate metabolic stability
CLint scaled ([4]; human, liver microsomes, read-out: Metabolic stability in human liver microsomes (clearance)): 376 mL/min/kg
metabolic stability grade, hepatocyte assay (in words) [5]: low to moderate metabolic stability
CLint scaled ([5]; human, cryopreserved hepatocytes, read-out: Metabolic stability in cryopreserved human hepatocytes (clearance)): 33.5 mL/min/kg
half-life ([5]; human, cryopreserved hepatocytes, read-out: Metabolic stability in cryopreserved human hepatocytes T1/2): 1.92 h
CYP2C19 inhibition grade (in words) [6]: weak inhibitor
IC50 [6]: 10.8 µM

Source: paper PMC8968952, “Modulation of ERCC1-XPF Heterodimerization Inhibition via Structural Modification of Small Molecule Inhibitor Side-Chains” (Frontiers in Oncology, 2022)
